In assay [1] the target is T1, human α4β7 (Homo sapiens, UniProt P13612+P26010).
T1 construct: expressed in transfected cells
T1 sequence (P13612 34-1032): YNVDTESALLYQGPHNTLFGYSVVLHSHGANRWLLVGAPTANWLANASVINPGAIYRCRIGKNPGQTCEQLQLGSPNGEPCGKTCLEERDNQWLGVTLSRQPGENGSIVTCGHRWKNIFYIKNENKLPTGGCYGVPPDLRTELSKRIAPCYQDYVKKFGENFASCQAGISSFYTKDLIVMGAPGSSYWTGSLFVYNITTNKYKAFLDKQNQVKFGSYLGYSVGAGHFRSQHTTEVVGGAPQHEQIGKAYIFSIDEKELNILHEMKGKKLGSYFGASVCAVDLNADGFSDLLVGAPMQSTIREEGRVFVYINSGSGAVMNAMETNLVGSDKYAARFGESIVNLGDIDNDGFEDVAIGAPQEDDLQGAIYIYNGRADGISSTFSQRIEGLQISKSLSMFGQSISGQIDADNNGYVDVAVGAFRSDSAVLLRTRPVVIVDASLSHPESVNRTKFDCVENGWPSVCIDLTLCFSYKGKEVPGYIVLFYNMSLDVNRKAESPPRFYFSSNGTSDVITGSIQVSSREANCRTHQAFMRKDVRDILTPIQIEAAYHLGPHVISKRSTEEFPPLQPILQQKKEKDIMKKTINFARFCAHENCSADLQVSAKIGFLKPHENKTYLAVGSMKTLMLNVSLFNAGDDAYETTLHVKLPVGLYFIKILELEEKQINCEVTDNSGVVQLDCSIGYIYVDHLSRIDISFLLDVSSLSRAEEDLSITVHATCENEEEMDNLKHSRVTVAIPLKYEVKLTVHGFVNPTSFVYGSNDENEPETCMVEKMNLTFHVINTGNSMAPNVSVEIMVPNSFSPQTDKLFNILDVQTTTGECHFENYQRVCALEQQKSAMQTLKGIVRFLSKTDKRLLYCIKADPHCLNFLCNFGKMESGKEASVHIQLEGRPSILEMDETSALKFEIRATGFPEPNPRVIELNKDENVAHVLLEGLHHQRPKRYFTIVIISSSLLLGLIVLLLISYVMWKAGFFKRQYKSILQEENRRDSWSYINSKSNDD
T1 sequence (P26010 20-798): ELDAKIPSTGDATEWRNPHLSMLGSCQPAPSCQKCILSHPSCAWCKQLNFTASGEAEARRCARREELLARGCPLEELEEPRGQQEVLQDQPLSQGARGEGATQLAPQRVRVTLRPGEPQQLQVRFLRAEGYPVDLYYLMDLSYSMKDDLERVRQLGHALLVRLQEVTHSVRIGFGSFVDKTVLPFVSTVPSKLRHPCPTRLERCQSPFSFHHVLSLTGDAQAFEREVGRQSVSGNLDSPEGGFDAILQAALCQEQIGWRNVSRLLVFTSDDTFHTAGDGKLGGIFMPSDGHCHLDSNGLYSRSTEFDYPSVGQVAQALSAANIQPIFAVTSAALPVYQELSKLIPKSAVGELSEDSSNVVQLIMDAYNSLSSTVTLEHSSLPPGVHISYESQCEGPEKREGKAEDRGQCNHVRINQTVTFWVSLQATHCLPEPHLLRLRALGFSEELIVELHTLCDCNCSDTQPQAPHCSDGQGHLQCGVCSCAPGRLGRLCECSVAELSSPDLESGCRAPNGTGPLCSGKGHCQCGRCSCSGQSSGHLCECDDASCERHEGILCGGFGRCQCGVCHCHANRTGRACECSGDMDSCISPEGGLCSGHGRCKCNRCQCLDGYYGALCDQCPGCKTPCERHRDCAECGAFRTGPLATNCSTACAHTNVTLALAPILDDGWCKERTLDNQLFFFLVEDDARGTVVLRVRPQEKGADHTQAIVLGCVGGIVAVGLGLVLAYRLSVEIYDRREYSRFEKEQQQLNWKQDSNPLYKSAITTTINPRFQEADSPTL
The assay can be described thus: α4β7-K562 Cell Adhesion Assay (α4β7 Mediated Adhesion/VCAM-1). The assay is classed as cell-based. The following applies: K562 cells expressing human α4β7 on recombinant hVCAM-1; read-out: α4β7 IC50. Here is the method: (§1) α4β7-K562 Cell Adhesion Assay (α4β7 Mediated Adhesion/VCAM-1) Immulon 96 well plates (Dynex) were coated with 100 μL recombinant hVCAM-1 at 4.0 μg/mL in 0.05 M NaCO3 buffer pH 9.0 overnight at 4° C. (R&D System). Plates were washed 3 times in PBS with 1% BSA and blocked for 1 h @ room temperature in this buffer. PBS was removed and compounds to be tested (50 μL) were added at 2× concentration. A stable cell line of K562 cells expressing human α4β7, (50 μL at 2×10^6/mL) labeled with 5 μM Calcein AM (Molecular Probes) for 1 h at 37° C., were added to each well and allowed to adhere for 1 h at room temperature. Plates were washed 3× in PBS+1% BSA and cells were lysed for 15 minutes in 100 μL of 1 M Tris pH 8.0 with 1% SDS. The plate was read at 485 nm excitation and 530 nm emission.

Assay [2] addresses α4β1 (Homo sapiens, UniProt P05556+P13612). The assay can be described thus: Ramos Cell Adhesion Assay (α4β1 Mediated Adhesion/VCAM-1). Set-up: Ramos cells, (50 μL at 2×10^6/mL) labeled with 5 μM Calcein AM; endogenous in cells; host or cells: Ramos cells. The following applies: Ramos cells on recombinant hVCAM-1; read-out: α4β1 IC50. It counts as cell-based. As for the experimental part: as §1, with “Ramos” for “α4β7-K562”, “α4β1” for “(α4β7”, “[…]” for “96”, “Systems).” for “System).”, “Ramos cells,” for “A stable cell line of K562 cells expressing human α4β7,”

We go through 19 compounds from US20060223846A1, “Aza-bridged-bicyclic amino acid derivatives as alpha4 integrin antagonists” (priority 2005, published 2006).

Some results are limits rather than exact numbers.

Chain of α4β1 (P05556 21-798, one chain of several): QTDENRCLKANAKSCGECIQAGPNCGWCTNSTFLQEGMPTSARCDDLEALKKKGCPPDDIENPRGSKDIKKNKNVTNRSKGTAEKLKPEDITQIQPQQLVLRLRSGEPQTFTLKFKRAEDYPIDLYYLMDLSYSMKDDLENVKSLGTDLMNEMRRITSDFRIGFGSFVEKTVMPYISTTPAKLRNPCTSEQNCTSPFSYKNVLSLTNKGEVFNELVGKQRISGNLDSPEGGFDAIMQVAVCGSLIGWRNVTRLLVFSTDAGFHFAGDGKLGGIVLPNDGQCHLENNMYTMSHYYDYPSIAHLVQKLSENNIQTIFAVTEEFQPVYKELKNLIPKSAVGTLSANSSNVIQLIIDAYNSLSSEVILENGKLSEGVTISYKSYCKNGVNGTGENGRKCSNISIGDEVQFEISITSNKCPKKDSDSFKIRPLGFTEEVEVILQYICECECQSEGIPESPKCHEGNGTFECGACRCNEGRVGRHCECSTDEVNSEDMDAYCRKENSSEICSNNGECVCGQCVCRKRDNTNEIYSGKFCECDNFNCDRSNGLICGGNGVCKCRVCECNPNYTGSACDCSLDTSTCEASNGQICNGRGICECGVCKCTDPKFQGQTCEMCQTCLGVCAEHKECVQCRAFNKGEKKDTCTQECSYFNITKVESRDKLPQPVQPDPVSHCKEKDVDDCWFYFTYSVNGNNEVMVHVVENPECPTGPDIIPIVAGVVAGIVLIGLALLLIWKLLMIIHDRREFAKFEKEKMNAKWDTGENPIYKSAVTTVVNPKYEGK

As for `COc1cccc(CC(=O)N2C3CCC(CC3)C2C(=O)NC(Cc2ccc(NC(=O)c3c(Cl)cncc3Cl)cc2)C(=O)O)c1` (centres unmarked) [Cpd 59], the figures for the half-inhibitory concentration (IC50) in assay [1] and in assay [2] were 255 nM and 504 nM, respectively.

Take `O=C(Nc1ccc(CC(NC(=O)C2C3CCC(CC3)N2C(=O)CCC2CCCC2)C(=O)O)cc1)c1c(Cl)cncc1Cl` (centres unmarked) [Cpd 28]: the IC50 (commonly the concentration at which inhibition is half-maximal) in assay [1] was 150 nM; in assay [2] it was 89 nM.

`COc1cc(CC(=O)N2C3CCC(CC3)C2C(=O)NC(Cc2ccc(NC(=O)c3c(Cl)cncc3Cl)cc2)C(=O)O)cc(OC)c1` (centres unmarked) [Cpd 31]: the IC50 in assay [1] is 106 nM; in assay [2] it was 8 nM.

On to `CC(C)CCC(=O)N1C2CCC(CC2)C1C(=O)NC(Cc1ccc(NC(=O)c2c(Cl)cncc2Cl)cc1)C(=O)O` (centres unmarked) [Cpd 38], for which the IC50 in assay [1] is 15 nM; in assay [2], 5 nM.

For `O=C(Nc1ccc(CC(NC(=O)C2C3CCC(CC3)N2C(=O)Cc2ccccn2)C(=O)O)cc1)c1c(Cl)cncc1Cl` (centres unmarked) [Cpd 4], the 50% inhibitory concentration (IC50) in assay [1] was 32 nM; in assay [2], 25 nM.

For `O=C(Nc1ccc(CC(NC(=O)C2C3CCC(CC3)N2C(=O)Cc2cccnc2)C(=O)O)cc1)c1c(Cl)cncc1Cl` (centres unmarked) [Cpd 5], the 50% inhibitory concentration (IC50) in assay [1] is 62 nM; in assay [2] it was 20 nM.

As for `O=C(Nc1ccc(CC(NC(=O)C2C3CCC(CC3)N2C(=O)Cc2cccs2)C(=O)O)cc1)c1c(Cl)cncc1Cl` (centres unmarked) [Cpd 32], the half-inhibitory concentration (IC50) in assay [1] was 30 nM; in assay [2], 12 nM.

In the case of `O=C(Nc1ccc(CC(NC(=O)C2C3CCC(CC3)N2C(=O)Nc2ccccc2Cl)C(=O)O)cc1)c1c(Cl)cncc1Cl` (centres unmarked) [Cpd 22], the half-inhibitory concentration (IC50) in assay [1] was 670 nM; in assay [2] it was 380 nM.

In the case of `O=C(Nc1ccc(CC(NC(=O)C2C3CCC(CC3)N2C(=O)Nc2ccc(Cl)cc2)C(=O)O)cc1)c1c(Cl)cncc1Cl` (centres unmarked) [Cpd 24], the IC50 in assay [1] is 743 nM; in assay [2] it was 591 nM.

Take `Cc1ccc(CCN2C3CCC(CC3)C2C(=O)NC(Cc2ccc(NC(=O)c3c(Cl)cncc3Cl)cc2)C(=O)O)cc1` (centres unmarked) [Cpd 58]: the concentration for half-maximal inhibition (IC50) in assay [1] is 16 nM; in assay [2], 201 nM.

Regarding `O=C(Nc1ccc(CC(NC(=O)C2C3CCC(CC3)N2C(=O)CCN2CCNCC2)C(=O)O)cc1)c1c(Cl)cncc1Cl` (centres unmarked) [Cpd 53], the IC50 in assay [1] was 141 nM; in assay [2], 3 nM.

On to `O=C(Nc1ccc(CC(NC(=O)C2C3CCC(CC3)N2C(=O)c2ccccc2F)C(=O)O)cc1)c1c(Cl)cncc1Cl` (mixture of isomers) [Cpd 9], for which the 50% inhibitory concentration (IC50) in assay [1] is 151 nM; in assay [2], 436 nM.

`O=C(Nc1ccc(CC(NC(=O)C2C3CCC(CC3)N2Cc2ccc(Cl)s2)C(=O)O)cc1)c1c(Cl)cncc1Cl` (centres unmarked) [Cpd 19]: the 50% inhibitory concentration (IC50) in assay [1] is > 5000 nM; in assay [2], 2560 nM.

On to `CCCCCC12CCC(C(=O)N3C4CCC(CC4)C3C(=O)NC(Cc3ccc(NC(=O)c4c(Cl)cncc4Cl)cc3)C(=O)O)(CC1)CC2` (mixture of isomers) [Cpd 13], for which the IC50 in assay [1] and in assay [2] was > 5000 nM throughout.

`CC(C)(C)OC(=O)N1CCN(CCC(=O)N2C3CCC(CC3)C2C(=O)NC(Cc2ccc(NC(=O)c3c(Cl)cncc3Cl)cc2)C(=O)O)CC1` (centres unmarked) [Cpd 35]: the IC50 in assay [1] is > 5000 nM; in assay [2] it was 122 nM.

`Cc1ccnn1CC(=O)N1C2CCC(CC2)C1C(=O)NC(Cc1ccc(NC(=O)c2c(Cl)cncc2Cl)cc1)C(=O)O` (centres unmarked) [Cpd 15]: the IC50 in assay [1] was 39 nM; in assay [2], 69 nM.

Regarding `COc1cccc(CC(=O)N2C3CCC(CC3)C2C(=O)NC(Cc2ccc(NC(=O)c3c(Cl)cncc3Cl)cc2)C(=O)O)c1` (centres unmarked) [Cpd 1], the results for the IC50 in assay [1] and in assay [2] were 93 nM and 156 nM, respectively.

As for `O=C(Nc1ccc(CC(NC(=O)C2C3CCC(CC3)N2C(=O)Cc2c(Cl)cccc2Cl)C(=O)O)cc1)c1c(Cl)cncc1Cl` (centres unmarked) [Cpd 6], the figures for the IC50 in assay [1] and in assay [2] were 387 nM and 234 nM, respectively.

In the case of `O=C(Nc1ccc(CC(NC(=O)C2C3CCC(CC3)N2C(=O)Cc2ccncc2)C(=O)O)cc1)c1c(Cl)cncc1Cl` (centres unmarked) [Cpd 44], the IC50 is 32 nM in assay [1] and 3 nM in assay [2].
